Experimental data: patent US20110010099A1, “Correlation Analysis of Biological Systems” (priority 2005, published 2011)

Key:
Type in all cases: in vivo
[1] = tested on: liver mRNA transcripts (Enzyme_ABC, Enzyme_DEF); assay: Liver mRNA transcript profiling (Affymetrix U34A) in rat hepatotoxicity study; settings: Group 3 drug-administered animals relative to Group 1 control animals
Description: Affymetrix microarray processing was carried out on liver tissue samples from 35 animals distributed among the seven experimental groups.
An additive effect on the log-transformed signal related to hybridization day was modeled, and the triplicate control samples were used to estimate the effect.

[2] = tested on: Enzyme_ABC in liver tissue; assay: Liver LC-MS proteomics profiling in rat hepatotoxicity study; settings: Group 3 drug-administered animals relative to Group 1 control animals
Description: (§1) Five Wistar Hannover male rats were used per group. Three groups were dosed for 7 days (control, low and intermediate dose) and urine collected twice daily for up to 7 days. One group was dosed once with a high dose of the drug and kept in a metabolism cage for a recovery study. In addition, three groups (control, intermediate and high dose) were dosed once and sacrificed after 24 hours. Plasma and liver tissue samples were collected from all groups at necropsy. Clinical pathology was performed and histopathological evaluations were provided.
• Sample: 100 mg of liver dissected from the thawed liver sample was cut into four 25 mg pieces and homogenized. • Clarification/Fractionation: Unbroken cells, nuclei and extracellular debris were removed using low-G centrifugation, and the resulting clarified homogenate was then subjected to membrane/cytosol fractionation using high-speed ultracentrifugation. • Protein Fractionation of Cytosol: The total cytosolic protein was subjected to C4 reversed-phase column chromatography to isolate 3 fractions for proteomic analysis. […] The resulting membrane tryptic peptide fraction was dried in vacuo. • Profiling of Peptides: Cytosolic peptides from the three acidic peptide sets and the membrane tryptic peptide fraction were quantitatively analyzed for differential expression via reversed-phase LC-ESI-MS. […]

[3] = tested on: plasma analytes of male Wistar Hannover rats; assay: Plasma GC-MS metabolite profiling in rat hepatotoxicity study; settings: Group 3 drug-administered animals compared to Group 1 animals
Description: as §1
Liver and plasma lipid LC-MS. Samples (liver or plasma) were treated with isopropanol to precipitate the protein and to extract the lipid metabolites. […] Resulting mass spectra were peak detected with IMPRESS (proprietary software, BG Medicine, Inc., Waltham, Mass.) and aligned/normalized with Equest and WinLin (proprietary software, BG Medicine, Inc., Waltham, Mass.). […] Metabolites detected with this approach include polar and non-polar lipids. […] The samples were detected with electron impact ionization on an Agilent 5973 MSD. […] Metabolites detected with this method include: alcohols, aldehydes and cyclohexanols, amino acids, acyl amino acids, succinylamino acids, amines, aromatic compounds, fatty acids (>C6), organic acids, phospho-organic acids, sugars, sugar acids, sugar amines, and sugar phosphates. […]

[4] = tested on: liver of male Wistar Hannover rats; assay: Rat hepatotoxicity study: liver morphology / histopathology for steatosis; settings: 7 days dosing, sacrifice day 8, male Wistar Hannover rats
Text: The primary objective of the study was to discover biomarkers in plasma of hepatic steatotic processes. In the course of this study, multiple molecular profiling techniques and data analysis methodologies were employed. A corollary objective of this study was to elucidate mechanisms underlying hepatic steatosis induced by the drug.
The study was designed to generate tissue and body fluid samples from groups of animals exposed for varying times at different doses to a drug previously shown to produce toxic steatosis of the liver.
as §1
The study was designed to generate tissue and body fluid samples from groups of animals treated for varying times and with different doses of ABC123. The different time points and dosing schedules were intended to allow the identification of biomarkers of steatosis over different times and doses.

Compound: Cn1c(=O)c2c(ncn2CC2OCCO2)n(C)c1=O [ABC123]
- reduction in abundance of Enzyme_ABC in liver tissue (mRNA transcript platform) [1]: approximately 1.7 fold
- reduction in abundance of Enzyme_ABC in liver tissue (proteomics platform) [2]: approximately 2 fold
- increase in abundance of Metabolite_XYZ in plasma (plasma GC-MS platform) [3]: approximately 1.4 fold
- steatosis upon examination of the livers using standard morphology techniques ([4]; Group 2 (lowest dose): 20 mg/kg/day): no evidence of steatosis
- steatosis upon examination of the livers using standard morphology techniques ([4]; Group 3: 200 mg/kg/day): morphological steatosis
